Experiment [1] relates to glyoxalase I. Nature of the experiment: SDS/PAGE detection of glyoxalase I-like protein in sorbent eluates. Format: binding, rat. The following applies: EDTA in buffers. The source says:
A protein with a molecular migration similar to that of another GSH-dependent enzyme, glyoxalase I, was also present in the eluates from γE-C(Bz)-A and γE-C(Bz)-βA, but was not detected in eluates from the other sorbents. […] Glyoxalase I is known to be a metal-dependent enzyme, and the presence of EDTA in the buffers may have interfered with binding activity.

Experiment [2] has as its system rat cytosolic GST isoenzymes. Nature of the experiment: Isoenzyme composition of sorbent eluates by SDS/PAGE and reverse-phase HPLC. Format: binding. The procedure:
Fractions eluted from the sorbents listed in Table 3 were analyzed by SDS/PAGE followed by silver staining. S-L-GSH and HxGSH sorbents bound proteins which corresponded to the previously observed electrophoretic band pattern of rat liver GST subunits. […] As the π-class GST 7-7 is found at low levels in rat liver cytosol, other rat tissues known to express higher levels of this isoenzyme also were tested.
Independent confirmation of this conclusion, at higher resolution, was provided by reverse-phase HPLC analyses of the GST isoenzymes in the eluates from different sorbents. […] Subunits 3, 4 and 6 are µ-class isoenzymes, subunits 1a, 1b, 2 and 8 are α-class isoenzymes, and subunit 7 is the π-class isoenzyme.

Experiment [3] deals with rat liver cytosolic GST isoenzymes. Nature of the experiment: Affinity chromatography of rat liver cytosol on GSH and GSH analog sorbents; recovery of protein and CDNB-conjugating activity in elution fractions. The format is binding. As to the method: 0.66 g epoxy Sepharose™ 6B (Pharmacia) was swollen with 10 mL water for 15 min, then rinsed twice with 10 mL water in a 15 mL sintered glass funnel. A solution of 100-500 mg of the crude tripeptide in 5 mL ethanol and 10 mL water was adjusted to pH 11-12 with 6 N NaOH in a 20 mL scintillation vial with a polycone cap. The rinsed resin was added, and gently agitated overnight in a 37° water bath. The pH was checked the next day and brought back to pH 11-12 with 6 N NaOH if needed. After another day of agitation, the resin was filtered (the peptide-containing liquid was acidified with conc HCl, evaporated and saved) and rinsed three times with 10 mL water. The unfunctionalized epoxy groups were capped by soaking the resin in 10 mL of water which contained about 0.1 mL ethanolamine for 1 hr. The resin was then rinsed three times with 10 mL water, and a sample was removed for analysis. The remainder was rinsed with 10 mL of 0.1 M NaOAc, 0.5 M NaCl pH 4.0 buffer, followed by 10 mL of 0.1 M tris chloride, 0.5 M NaCl pH 8.0 buffer. The resin was stored at 4°C in this pH 8 buffer.
The recoveries of protein and GST (CDNB-conjugating) activity in the elution fractions after affinity purification of rat liver cytosolic GST isoenzymes on various compounds of the invention are shown in Table 3.

Structures are written as SMILES.

Turning to `N[C@@H](CCC(=O)N[C@@H](CSCc1ccccc1)C(=O)NCCC(=O)O)C(=O)O` [γE-C(Bz)-βA, γ-glutamyl S-benzyl cysteinyl β-alanine], the “protein with a molecular migration similar to glyoxalase I in eluate” value in experiment [1] was “present”. Besides, the “SDS/PAGE band pattern of eluate” value in experiment [2] (rat liver cytosol, silver staining) was “highly enriched band for presumptive µ-class isoenzymes”. Moreover, the isoenzymes bound entry in experiment [2] (reverse-phase HPLC of eluates) was “selectively bound the µ-class isoenzymes 3 and 4”. The same compound returned a Protein recovery in experiment [3] (Table 4, rat cytosolic GST isoenzymes) of 1.0%. Moreover, the “protein recovery seen with HxGSH” value in experiment [3] (relative to HxGSH sorbent) came out at 33%. Further, the CDNB-conjugating activities in experiment [3] (relative to HxGSH sorbent, after correcting for the inhibitory properties of the eluting ligand) was 52%.

The values are drawn from EP0645397B1, “Glutathione analogs and paralog panels comprising glutathione mimics” (TERRAPIN TECHNOLOGIES, INC., priority 1993, dated 1998).
